Experiments:
[1] = % SPP100 in faeces following single oral dose of 300 mg [14C]SPP100 studied in healthy men; assay type: ADME, organism-based, Feces; conditions: human, in vivo, at 300 mg
CYP2C19 = CYP2C19 (Homo sapiens, UniProt P33261); assay: Inhibition of CYP2C19 in human liver microsomes from 10 healthy donors at 200 uM aliskiren (SPP100); assay type: ADME, Microsome; design: conc 200 uM; conditions: probe S-mephenytoin (4'-hydroxylation)
[2] = Excretion of radioactivity (0-96h) in faeces following single oral dose of 100 mg.Kg-1 [14C] aliskiren hemifumarate in rat; assay type: ADME, organism-based, Albino HAN:WIST, Feces; conditions: in vivo
[3] = Concentration of radioactivity in the kidney medulla following repeated oral administration of [14C] aliskiren hemifumarate at 100 mg.Kg-1 level studied at 2h after 7th dose in rat; assay type: ADME, organism-based, Albino HAN:WIST, Renal medulla; conditions: in vivo
[4] = Mean excretion of radioactivity (24-48h) in urine and faeces following single oral dose of 100 mg.Kg-1 [14C] aliskiren hemifumarate in rat; assay type: ADME, organism-based, Albino HAN:WIST, Urine/Feces; conditions: in vivo
[5] = Excretion of radioactivity (48-72h) in faeces following single intravenous dose of 10 mg.Kg-1 [14C] aliskiren hemifumarate in mouse; assay type: ADME, organism-based, TgRasH2, Feces; conditions: in vivo
[6] = AUC/dose (0-168h) of total radioactivity following single oral administration of [14C] aliskiren hemifumarate at 3 mg.Kg-1 level in marmoset; assay type: ADME, organism-based, Callithrix jacchus, Plasma; conditions: in vivo
[7] = Excretion of radioactivity (0-72h) in faeces following single oral dose of 500 mg.Kg-1 [14C] aliskiren hemifumarate in mouse; assay type: ADME, organism-based, TgRasH2, Feces; conditions: in vivo
Cytochrome P450 4F2 = target: T1, Cytochrome P450 4F2 (Homo sapiens, UniProt P78329); assay: Metabolic clearance (ul.min.nmol-1 CYP) of aliskiren hemifumarate for CYP4F2 was determined in human liver microsome incubated with [14C]SPP100 hemifumarate; assay type: ADME; conditions: microsomes
T1 sequence (P78329 whole entry): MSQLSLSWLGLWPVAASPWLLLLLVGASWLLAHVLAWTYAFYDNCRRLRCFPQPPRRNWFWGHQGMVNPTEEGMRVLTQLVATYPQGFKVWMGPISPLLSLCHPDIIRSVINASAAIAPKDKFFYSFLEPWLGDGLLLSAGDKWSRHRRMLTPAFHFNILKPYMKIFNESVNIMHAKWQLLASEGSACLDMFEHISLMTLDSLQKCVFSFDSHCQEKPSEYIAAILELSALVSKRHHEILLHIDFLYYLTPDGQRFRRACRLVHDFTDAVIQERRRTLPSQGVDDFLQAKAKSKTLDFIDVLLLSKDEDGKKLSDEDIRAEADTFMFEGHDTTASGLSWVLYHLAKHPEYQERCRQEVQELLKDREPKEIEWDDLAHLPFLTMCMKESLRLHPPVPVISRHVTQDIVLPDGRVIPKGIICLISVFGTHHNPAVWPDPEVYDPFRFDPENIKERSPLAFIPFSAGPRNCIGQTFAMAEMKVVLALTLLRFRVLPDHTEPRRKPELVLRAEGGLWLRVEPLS

Cytochrome P450 2E1 = Cytochrome P450 2E1 (Homo sapiens, UniProt P05181); assay: Metabolic clearance (ul.min.nmol-1 CYP) of aliskiren hemifumarate for CYP2E1 was determined in human liver microsome incubated with [14C]SPP100 hemifumarate; assay type: ADME; conditions: microsomes
[8] = Biliary elimination of aliskiren following single oral dose of [14C] aliskiren hemifumarate at 500 mg.Kg-1 level in mouse; assay type: ADME, organism-based, TgRasH2, Bile; conditions: in vivo
[9] = Tmax (0-96h) of unlabeled aliskiren hemifumarate following oral administration of aliskiren hemifumarate at 100 mg.Kg-1 level in rat; assay type: ADME, organism-based; conditions: Albino HAN:WIST, plasma
[10] = Cmaxspec of aliskiren hemifumarate following 2 week oral dosing of aliskiren hemifumarate at 100 mg.Kg-1 level studied on day 1 in male Callithrix jacchus; assay type: ADME, organism-based, Plasma; conditions: marmoset, in vivo, 336 h
[11] = Bioavailability (0-168h) of unlabeled aliskiren hemifumarate following single oral administration of aliskiren hemifumarate at 3 mg.Kg-1 level in marmoset; assay type: ADME, organism-based, Callithrix jacchus; conditions: plasma
[12] = AUCss(tau)/dose of aliskiren hemifumarate following repeated oral administration of [14C] aliskiren hemifumarate at 100 mg.Kg-1 level studied in rat; assay type: ADME, organism-based, Albino HAN:WIST, Plasma; conditions: in vivo
[13] = Cmaxspec of aliskiren hemifumarate following 2 week oral dosing of aliskiren hemifumarate at 100 mg.Kg-1 level studied on day 1 in female Callithrix jacchus; assay type: ADME, organism-based, Plasma; conditions: marmoset, in vivo, 336 h
[14] = Tmax of aliskiren hemifumarate following repeated oral administration of [14C] aliskiren hemifumarate at 100 mg.Kg-1 level studied after 2h of dosing on day 10 in rat; assay type: ADME, organism-based, Albino HAN:WIST; conditions: in vivo
[15] = Tmax of aliskiren hemifumarate following 8 day once-daily dosing of SPP100B oral solution at 160 mg level studied on day 8 in men; assay type: ADME, organism-based; conditions: male, human, plasma
[16] = AUC (0-24h)/dose of aliskiren hemifumarate following 4 week oral dietary dosing of aliskiren hemifumarate at 1500 mg.Kg-1 level in male mouse; assay type: ADME, organism-based, CB6F1-TGrasH2, Plasma; conditions: in vivo
[17] = Cmax of aliskiren hemifumarate following 2 week oral dosing of aliskiren hemifumarate at 50 mg.Kg-1 level studied on day 14 in female Callithrix jacchus; assay type: ADME, organism-based; conditions: marmoset, plasma
[18] = Effect of 2 week oral dosing of aliskiren hemifumarate at 50 mg.Kg-1 level on plasma creatinine level in female Callithrix jacchus; assay type: toxicity, organism-based; conditions: marmoset, 336 h
[19] = AUC(0-24h) of aliskiren hemifumarate following 2 week oral dosing of aliskiren hemifumarate at 100 mg.Kg-1 level studied on day 1 in male Callithrix jacchus; assay type: ADME, organism-based; conditions: marmoset, plasma
[20] = Hepatic blood flow (0-168h) of unlabeled aliskiren hemifumarate following single intravenous administration of aliskiren hemifumarate at 1 mg.Kg-1 level in marmoset; assay type: ADME, organism-based, Callithrix jacchus, Liver; conditions: in vivo
[21] = Effect of 2 week oral dosing of aliskiren hemifumarate at 100 mg.Kg-1 level on hematological parameter values in female Callithrix jacchus; assay type: toxicity, organism-based, Plasma; conditions: marmoset, in vivo, 336 h
[22] = AUC of aliskiren hemifumarate following single dosing of SPP100B oral solution at 40 mg level studied on day 1 in men; assay type: ADME, organism-based; conditions: male, human, plasma
[23] = Cmax/dose of aliskiren hemifumarate following 4 week oral dietary dosing of aliskiren hemifumarate at 500 mg.Kg-1 level in female mouse; assay type: ADME, organism-based, CB6F1-TGrasH2; conditions: in vivo, 672 h
[24] = Tmax (0-168h) of unlabeled aliskiren hemifumarate following single oral administration of aliskiren hemifumarate at 3 mg.Kg-1 level in marmoset; assay type: ADME, organism-based, Callithrix jacchus; conditions: plasma

Chain of CYP2C19 (P33261 whole entry): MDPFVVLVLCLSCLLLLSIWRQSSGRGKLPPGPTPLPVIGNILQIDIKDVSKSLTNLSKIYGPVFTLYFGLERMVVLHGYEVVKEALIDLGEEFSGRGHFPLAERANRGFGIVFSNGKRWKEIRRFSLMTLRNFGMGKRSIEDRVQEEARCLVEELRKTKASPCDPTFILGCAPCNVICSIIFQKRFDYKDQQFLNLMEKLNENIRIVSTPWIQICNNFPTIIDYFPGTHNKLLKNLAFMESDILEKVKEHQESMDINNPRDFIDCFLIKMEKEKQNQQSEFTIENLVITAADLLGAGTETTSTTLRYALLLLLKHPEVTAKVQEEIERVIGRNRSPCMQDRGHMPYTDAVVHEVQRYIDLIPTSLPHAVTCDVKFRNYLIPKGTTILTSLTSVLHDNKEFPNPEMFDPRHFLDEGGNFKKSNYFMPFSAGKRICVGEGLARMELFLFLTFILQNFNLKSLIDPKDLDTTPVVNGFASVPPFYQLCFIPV
Chain of Cytochrome P450 2E1 (P05181 whole entry): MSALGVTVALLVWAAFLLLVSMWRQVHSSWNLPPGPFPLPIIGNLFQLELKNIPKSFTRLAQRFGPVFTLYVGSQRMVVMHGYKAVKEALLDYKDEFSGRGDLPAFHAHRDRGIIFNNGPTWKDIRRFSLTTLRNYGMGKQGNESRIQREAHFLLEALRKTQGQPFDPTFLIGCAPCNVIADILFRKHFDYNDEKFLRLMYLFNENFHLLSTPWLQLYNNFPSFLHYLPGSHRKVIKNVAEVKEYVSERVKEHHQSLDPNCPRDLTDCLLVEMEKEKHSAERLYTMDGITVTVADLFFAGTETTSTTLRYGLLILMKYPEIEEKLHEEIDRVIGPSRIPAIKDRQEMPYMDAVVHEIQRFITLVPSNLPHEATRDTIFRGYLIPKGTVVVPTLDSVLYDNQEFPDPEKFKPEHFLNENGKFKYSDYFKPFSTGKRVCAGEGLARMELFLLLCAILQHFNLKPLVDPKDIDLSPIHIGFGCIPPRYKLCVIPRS

SMILES: COCCCOc1cc(C[C@@H](C[C@H](N)[C@@H](O)C[C@H](C(=O)NCC(C)(C)C(N)=O)C(C)C)C(C)C)ccc1OC
- Compound recovery [1]: 77.5%
- inhibition at 200 µM (CYP2C19): 42.5%

SMILES: COCCCOc1cc(C[C@@H](C[C@H](N)[C@@H](O)C[C@H](C(=O)NCC([14CH3])([14CH3])C(N)=O)C(C)C)C(C)C)ccc1OC.O=C(O)/C=C/C(=O)O
- Radiolabel recovery [2]: 4.2%
- Radiolabel recovery [3]: OUTCOME = Detected
- Radiolabel recovery [4]: 40.2%
- Radiolabel recovery [5]: 0.74%
- AUC normalised [6]: 1.61 (umol.h/L)/(mg/kg)
- Radiolabel recovery [7]: 1.98%
- CL (Cytochrome P450 4F2): 7.9 µL·min/nmol
- CL (Cytochrome P450 2E1): 1.4 µL·min/nmol
- Radiolabel recovery [8]: OUTCOME = Observed, VALUE = Elimination of aliskiren occurred mainly via the biliary or faecal route

SMILES: COCCCOc1cc(C[C@@H](C[C@H](N)[C@@H](O)C[C@H](C(=O)NCC(C)(C)C(N)=O)C(C)C)C(C)C)ccc1OC.COCCCOc1cc(C[C@@H](C[C@H](N)[C@@H](O)C[C@H](C(=O)NCC(C)(C)C(N)=O)C(C)C)C(C)C)ccc1OC.O=C(O)/C=C/C(=O)O [ALISKIREN FUMARATE]
- Tmax [9]: 0.25 h
- Cmax normalised [10]: 0.072 (ug/ml)/(mg/kg)
- bioavailability [11]: 3%
- AUCss(tau) normalised [12]: 10 (nmol.h.L-1)/(mg/kg)
- Cmax normalised [13]: 0.079 (ug/ml)/(mg/kg)
- Tmax(10) [14]: 218 h
- Tmax [15]: 4.1 h
- AUC normalised [16]: 2.76 ((ng/mL).hours)/(mg/kg/day)
- Cmax [17]: 10100 ng/mL
- CREAT_CHANGE_BY [18]: 130%
- AUC(0-t) at 24 h [19]: 76400 ng·h/mL
- Hepatic blood flow [20]: 2.8 L·h/kg
- Change in hematology [21]: OUTCOME = Hematological parameter values did not differ from control values. No animals died during the study.
- AUC [22]: 28.5 ng·h/mL
- Cmax normalised [23]: 0.128 (ng/mL)/(mg/kg/day)
- Tmax [24]: 2 h

Source: ChEMBL document CHEMBL3508693 (2016)
